From patent EP3409671B1, “ISOTHIAZOLE DERIVATIVES AS GPR120 AGONISTS FOR THE TREATMENT OF TYPE II DIABETES” (Janssen Pharmaceutica NV, priority 2014, dated 2015) come the findings set out here.

One test addresses T1, Human GPR120 short form (Homo sapiens, UniProt Q5NUL3).
T1 construct: expressed in transfected cells
T1 sequence (Q5NUL3 1-361): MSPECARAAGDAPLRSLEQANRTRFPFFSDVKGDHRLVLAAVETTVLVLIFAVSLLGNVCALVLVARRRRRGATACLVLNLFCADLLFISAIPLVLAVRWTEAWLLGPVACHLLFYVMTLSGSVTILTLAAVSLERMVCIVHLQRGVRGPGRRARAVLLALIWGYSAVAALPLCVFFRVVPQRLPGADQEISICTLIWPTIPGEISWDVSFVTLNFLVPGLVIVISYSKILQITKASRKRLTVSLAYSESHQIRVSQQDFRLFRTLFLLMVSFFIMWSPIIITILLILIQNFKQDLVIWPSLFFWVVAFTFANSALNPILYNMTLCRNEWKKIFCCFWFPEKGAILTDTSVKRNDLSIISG
The test is described as follows: Human GPR120 Calcium Flux Assay, Procedure Calcium B. In kind it is cell-based. The conditions noted are these: HEK-293 cells expressing Human GPR120 short form, FLIPR, 4200 cells/well; read-out: GPR120 Ca^2+ Assay B EC50. The source says: This in vitro assay serves to assess test compound agonist activity against the short splice variant (SVS with Accession number NM_001195755.1 confirmed by sequencing data) of the GPR120 receptor. The Human Short splice variant #2 (NM_001195755.1) is missing an in-frame coding exon compared to variant 1 (the Human Long splice variant NM_181745.3), resulting in a shorter isoform (GPR120-S) lacking a 16 aa protein segment compared to isoform GPR120-L. The assay platform utilizes HEK-293 cells stably transfected to express the Human GPR120 short form. These cells are first loaded with the Ca^+2 sensitive dye, Fluo-4 NW. Upon stimulation, intracellular released Ca^+2 can bind to the dye and alter its fluorescence intensity. This increase in fluorescence signal, and thus the flux in intracellular [Ca^2+], is detected and quantitated by fluorescence imaging using a FLIPR reader. The effect of the agonist is measured as a function of concentration and used to calculate an EC50 based upon a response curve.
In this procedure 4200 cells/well were employed.
A Human GPR120 clone (Genbank accession number NM _001195755.1) was placed into the pcDNA3.1 mammalian expression vector carrying the neomycin resistance gene. A stable mammalian cell was generated by placing the above clone into a HEK293 background. Clonal cells responding to long chain fatty acids had expression levels of GPR120 confirmed by RT-qPCR. Human HEK-GPR120 cells were cultured in Dulbecco's Modified Eagle's Medium (DMEM)/F12 medium supplemented with 10% fetal bovine serum (FBS), 1% L-Glutamine and 1% penicillin/streptomycin and 0.5 mg/ml G-418. Cells were split 2 times a week to keep the cells in the log-phase growth.
In preparation for the assay, HEK cells stably transfected with Human GPR120 (2.5K cells per well in 25uL growth medium) were seeded into 384-well plates and then incubated overnight (37°C, 5% CO2). The next day, the media was changed to 20 µL assay buffer and the cell starved for 1h at 37°C. […]
The assay was performed on a FLIPR plate reader using the following parameters. Baseline was read for 10 seconds at 1 sec intervals. The program was set to transfer 10µL of ligand from compound plate to cell plate after baseline reading. […] After compound addition, each well was read for 300 sec, with measurements collected at 1 sec intervals.
The kinetic data from the FLIPR was based upon a 5 minute window for data collection. The fluorescence of each sample well was used for individual calculations of a normalized RFU value, which was defined as maximum response minus the minimum response. The normalized fluorescence reading (RFU) was calculated as follows: RFU = Fmax−Fmin [formula] […]

For test [1], the target named is T2, short form of the GPR120 receptor (Homo sapiens, UniProt Q5NUL3).
T2 construct: host or cells: PathHunter CHO-K1 GPR120S β-Arrestin Cell Line
T2 sequence (Q5NUL3 1-361): T1 sequence (Q5NUL3 1-361)
Briefly: Human GPR120 DiscoveRx PathHunter Beta-Arrestin assay, Procedure β-arrestin B. The following applies: PathHunter CHO-K1 GPR120S β-Arrestin Cell Line, 5000 cells/well, read-out: hGPR120 β-arrestin B EC50. In kind it is cell-based. The source says:
The binding of an agonist (medium/long chain fatty acids or small molecule agonists) to the G-protein-coupled receptor GPR120 activates phospholipase C, leading to release of intracellular Ca^+2 through the generation of inositol 1,4,5-trisphosphate (InsP3 or IP3). GPR120 activation can also trigger intracellular signaling via recruitment of Beta-Arrestin. In the present method, agonist-induced activation of the human GPR120 receptor is monitored through the use of PathHunter CHO-K1 GPR120 Beta-Arrestin Cell Line engineered by DiscoveRx, as detailed below. The cell lines are designed to co-express both the ProLink/Enzyme Donor (PK)-tagged GPCR and the Enzyme […] (EA)-tagged Beta-Arrestin fusion proteins. Upon GPR120 receptor stimulation / activation, the EA-tagged Beta-Arrestin portion is translocated to the tagged receptor, where the two enzyme fragments are brought within close proximity.
Under these conditions, these fragments can interact and form an active Beta-gal enzyme complex through Enzyme Fragment Complementation (EFC). This active Beta-gal complex can enzymatically hydrolyse the substrate to produce a detectable light signal; therefore, activation as a function of agonist concentration can be expressed as an EC50 value to determine relative compound activities. This in vitro assay therefore serves to assess compound agonist activity of the GPR120.
In Procedure β-arrestin B the cells used were PathHunter CHO-K1 GPR120S β-Arrestin Cell Line, expressing the short form of the GPR120 receptor (Accession #NM_181745), with 5000 cells/well. […]
The plates were read on an EnVision instrument, using Protocol name: Luminescence, Plate type: 384 Costar, Measurement height: 3 mm, Measurement time: 1s, Aperture: 384 Plate aperture. The %activity relative to the positive control was calculated using the following equation: %Activity = (Countcompound −Countvehicle)/(Countpostivite control −Countvehicle) × 100% [formula] […]

Molecules are shown by their SMILES. pEC50: −log10 of the molar value.

As a reminder, the pEC50 is −log10 of the EC50, conventionally taken in molar units.

Regarding `Cc1c(CCC(=O)O)ccc(OCc2c(-c3ncc(Cl)s3)nsc2C(F)(F)F)c1C` [Cpd 269, 3-(4-((3-(5-chlorothiazol-2-yl)-5-(trifluoromethyl)isothiazol-4-yl)methoxy)-2,3-dimethylphenyl)propanoic acid], the pEC50 at Human GPR120 short form was 6.71; in test [1], 6.17.

Turning to `COc1cnc(-c2nsc(C(F)(F)F)c2COc2ccc(CCC(=O)O)c(C)c2C)s1` [Cpd 268, 3-(4-((3-(5-methoxythiazol-2-yl)-5-(trifluoromethyl)isothiazol-4-yl)methoxy)-2,3-dimethylphenyl)propanoic acid], the pEC50 on Human GPR120 short form was 6.33; in test [1], 6.35.

As to `COc1cnc(-c2nsc(C(F)(F)F)c2COc2c(F)cc(CCC(=O)O)cc2F)s1` [Cpd 267, 3-(3,5-difluoro-4-((3-(5-methoxythiazol-2-yl)-5-(trifluoromethyl)isothiazol-4-yl)methoxy)phenyl)propanoic acid], the negative-log EC50 (pEC50) on Human GPR120 short form is 6.56; in test [1], 6.28.
